# Molecular target: T1, CRTH2 receptor (hCRTH2) (Homo sapiens, UniProt Q9Y5Y4)
# T1 construct: expressed in transfected cells; host or cells: HEK cells (HEK-hCRTH2 cell line), membranes
# T1 sequence (Q9Y5Y4 1-395): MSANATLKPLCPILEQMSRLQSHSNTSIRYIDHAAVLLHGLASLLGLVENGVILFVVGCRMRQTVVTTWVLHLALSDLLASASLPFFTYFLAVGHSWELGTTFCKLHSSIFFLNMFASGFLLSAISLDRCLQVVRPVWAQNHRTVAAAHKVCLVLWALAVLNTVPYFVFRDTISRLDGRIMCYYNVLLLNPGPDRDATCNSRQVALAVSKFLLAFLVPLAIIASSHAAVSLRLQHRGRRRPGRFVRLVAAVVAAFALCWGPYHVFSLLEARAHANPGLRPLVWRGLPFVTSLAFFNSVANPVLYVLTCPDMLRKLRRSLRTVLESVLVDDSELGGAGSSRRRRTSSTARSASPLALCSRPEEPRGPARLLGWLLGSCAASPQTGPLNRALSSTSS
# Test: Radioligand binding assay ([3H]PGD2 competition, membranes of HEK-hCRTH2 cell line)
# Details: 3.0 nM [3H]PGD2, HEK-hCRTH2 membranes, 60 min, room temperature; read-out: Ki
# In short: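 Membranes (8-20 μg protein) from HEK cells expressing human CRTH2 were incubated with [3H]PGD2 and competitor in 1% DMSO for 60 min at room temperature. Non-specific binding was defined with excess PGD2. Bound radioactivity was separated by filtration and counted by melt-on scintillation.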
row,SMILES,Ki [nM]
1,O=C(O)CCCCc1nc2cc(-c3cc(COCc4ccc(F)cc4)on3)ccc2c(=O)n1-c1ccc(F)cc1 [Example 278],10 to 50
2,O=C(O)CCCCc1nc2cc(-c3cc(COCc4ccccc4F)on3)ccc2c(=O)n1-c1ccc(F)cc1 [Example 279],≤ 10
3,O=C(O)CCCCc1nc2cc(-c3cc(COCc4cccc5cccnc45)on3)ccc2c(=O)n1-c1ccc(F)cc1 [Example 283],10 to 50
4,C[C@H]1C(c2ccc3c(=O)n(-c4ccc(F)cc4)c(CCCCC(=O)O)nc3c2)=NO[C@@H]1c1ccccc1 [Example 286],≤ 10
5,C[C@H]1ON=C(c2ccc3c(=O)n(-c4ccc(F)cc4)c(CCCCC(=O)O)nc3c2)[C@H]1c1ccccc1 [Example 287],≤ 10
6,C[C@]1([C@H](O)c2ccc(F)cc2)CC(c2ccc3c(=O)n(-c4ccc(F)cc4)c(CCCCC(=O)O)nc3c2)=NO1 [Example 288],10 to 50
7,C[C@@]1([C@H](O)c2ccc(F)cc2)CC(c2ccc3c(=O)n(-c4ccc(F)cc4)c(CCCCC(=O)O)nc3c2)=NO1 [Example 289],≤ 10
8,C[C@@]1(Cc2ccc(F)cc2)CC(c2ccc3c(=O)n(-c4ccc(F)cc4)c(CCCCC(=O)O)nc3c2)=NO1 [Example 293],10 to 50

# Now from value to compound:
row,Ki [nM],SMILES
1,≤ 10,O=C(O)CCCCc1nc2cc(-c3cc(COCc4cccc(F)c4)on3)ccc2c(=O)n1-c1ccc(F)cc1 [Example 276]
2,10 to 50,O=C(O)CCCCc1nc2cc(-c3cc(COCc4ccccc4)on3)ccc2c(=O)n1-c1ccc(F)cc1 [Example 277]
3,10 to 50,O=C(O)CCCCc1nc2cc(-c3cc(COCc4ccc(-c5ccccc5)cc4)on3)ccc2c(=O)n1-c1ccc(F)cc1 [Example 280]
4,10 to 50,O=C(O)CCCCc1nc2cc(-c3cc(COCc4cccc(-c5ccccc5)c4)on3)ccc2c(=O)n1-c1ccc(F)cc1 [Example 281]
5,≤ 10,O=C(O)CCCCc1nc2cc(-c3cc(COCc4cccc(-c5ccccc5)c4)on3)ccc2c(=O)n1-c1ccc(F)cc1 [Example 282]
6,10 to 50,O=C(O)CCCCc1nc2cc(-c3cc(COCc4ccnc5ccccc45)on3)ccc2c(=O)n1-c1ccc(F)cc1 [Example 284]
7,≤ 10,C[C@@H]1C(c2ccc3c(=O)n(-c4ccc(F)cc4)c(CCCCC(=O)O)nc3c2)=NO[C@@H]1c1ccccc1 [Example 285]
8,≤ 10,C[C@]1([C@@H](O)c2ccc(F)cc2)CC(c2ccc3c(=O)n(-c4ccc(F)cc4)c(CCCCC(=O)O)nc3c2)=NO1 [Example 290]
9,10 to 50,C[C@@]1([C@@H](O)c2ccc(F)cc2)CC(c2ccc3c(=O)n(-c4ccc(F)cc4)c(CCCCC(=O)O)nc3c2)=NO1 [Example 291]
10,10 to 50,C[C@]1(Cc2ccc(F)cc2)CC(c2ccc3c(=O)n(-c4ccc(F)cc4)c(CCCCC(=O)O)nc3c2)=NO1 [Example 292]
